Experimental data: US8802597B2, “Herbicidal pyrimidines” (E I du Pont de Nemours and Company, priority 2003, dated 2014)
Like-named read-outs stand apart in the source and are kept apart here.

How the values were obtained:
Assay type in all cases: in vivo
[1] = system: pigweed (Amaranthus retroflexus); experiment: Test B pre/postemergence; details: Amaranthus retroflexus; for pest or weed control at 125 g/ha: 125 g ai/ha; for pest or weed control at 500 g/ha: 500 g ai/ha
Outline: (§1)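 Pre: compound (non-phytotoxic solvent + surfactant) applied to freshly planted seeds. Post: same formulation sprayed on 2–18 cm plants, 1- to 4-leaf. Readout: visual control rating 0–100 vs controls, 13–15 d, greenhouse.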

[2] = system: velvetleaf (Abutilon theophrasti); experiment: Test B pre/postemergence; details: Abutilon theophrasti; for pest or weed control at 125 g/ha: 125 g ai/ha; for pest or weed control at 500 g/ha: 500 g ai/ha
Outline: as §1

[3] = system: giant foxtail (Setaria faberii); experiment: Test B pre/postemergence; details: Setaria faberi; for pest or weed control at 125 g/ha: 125 g ai/ha; for pest or weed control at 500 g/ha: 500 g ai/ha
Outline: as §1

[4] = system: crabgrass (Digitaria sanguinalis); experiment: Test B pre/postemergence; details: Digitaria sanguinalis; for pest or weed control at 125 g/ha: 125 g ai/ha; for pest or weed control at 500 g/ha: 500 g ai/ha
Outline: as §1

[5] = system: Surinam grass (Brachiaria decumbens); experiment: Test B pre/postemergence; details: Urochloa decumbens; for pest or weed control at 125 g/ha: 125 g ai/ha; for pest or weed control at 500 g/ha: 500 g ai/ha
Outline: as §1

[6] = system: lambsquarters (Chenopodium album); experiment: Test B pre/postemergence; details: Chenopodium album; for pest or weed control at 125 g/ha: 125 g ai/ha; for pest or weed control at 500 g/ha: 500 g ai/ha
Outline: as §1

[7] = system: cocklebur (Xanthium strumarium); experiment: Test B pre/postemergence; details: Xanthium strumarium; for pest or weed control at 125 g/ha: 125 g ai/ha; for pest or weed control at 500 g/ha: 500 g ai/ha
Outline: as §1

[8] = system: barnyardgrass (Echinochloa crus-galli); experiment: Test B pre/postemergence; details: Echinochloa crus-galli; for pest or weed control at 125 g/ha: 125 g ai/ha; for pest or weed control at 500 g/ha: 500 g ai/ha
Outline: as §1

[9] = system: morningglory (Ipomoea coccinea); experiment: Test B pre/postemergence; details: Ipomoea; for pest or weed control at 125 g/ha: 125 g ai/ha; for pest or weed control at 500 g/ha: 500 g ai/ha
Outline: as §1

[10] = system: wheat (Triticum aestivum); experiment: Test B pre/postemergence; details: Triticum aestivum; for plant injury at 125 g/ha: 125 g ai/ha; for plant injury at 500 g/ha: 500 g ai/ha
Outline: as §1

corn (Zea mays) = experiment: Test B pre/postemergence; details: Zea mays
Outline: as §1

wild oat (Avena fatua) = experiment: Test B postemergence; details: Avena fatua, post-emergence
Outline: as §1

[11] = system: blackgrass (Alopecurus myosuroides); experiment: Test B postemergence; details: Alopecurus myosuroides, post-emergence
Outline: as §1

[12] = system: duck salad (Heteranthera limosa); experiment: Test B flooded paddy test; details: Heteranthera limosa, Flood, 1000 g ai/ha; scale 0 to 100; read-out: Plant response rating, Ducksalad
Outline: (§2)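 Rice, umbrella sedge, duck salad and barnyardgrass grown to 2-leaf stage under flooded paddy conditions and treated with formulated test chemicals. Kept in greenhouse 13–15 days, then visually rated against untreated controls on a 0–100 scale (0 no effect, 100 complete control).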

[13] = system: barnyardgrass (Echinochloa crus-galli); experiment: Test B flooded paddy test; details: Echinochloa crus-galli, Flood, 1000 g ai/ha; scale 0 (no effect) to 100 (complete control); read-out: Plant response rating, Barnyardgrass
Outline: as §2

[14] = system: umbrella sedge (Cyperus difformis); experiment: Test B flooded paddy test; details: Cyperus difformis, Flood, 1000 g ai/ha; scale 0 to 100; read-out: Plant response rating, Sedge, Umbrella
Outline: as §2

rice (Oryza sativa) = experiment: Test B flooded paddy test; details: Oryza sativa, Flood, 1000 g ai/ha; scale 0 to 100; read-out: Plant response rating, Rice
Outline: as §2

[15] = pre-emergence, Preemergence, scale 0 to 100 (0 no effect, 100 complete control), read-out: Plant response rating, Wheat

COC(=O)c1nc(C2CC2)nc(NO)c1Br [Compound 35]
60%: pest or weed control at 500 g/ha ([3]; post-emergence, Postemergence, scale 0 to 100, read-out: Plant response rating, Foxtail, Giant) | pest or weed control at 500 g/ha ([5]; pre-emergence, Preemergence, scale 0 to 100 (0 no effect, 100 complete control), read-out: Surinam Grass plant response rating) | pest or weed control at 125 g/ha ([7]; pre-emergence, Preemergence, scale 0 to 100 (0 no effect, 100 complete control), read-out: Plant response rating, Cocklebur) | plant injury at 500 g/ha ([10]; post-emergence, Postemergence, scale 0 to 100, read-out: Plant response rating, Wheat) | Corn plant response rating (crop injury, 0 = no effect, 100 = complete kill) at 500 g/ha (corn (Zea mays); post-emergence, Postemergence, 500 g ai/ha, scale 0 to 100) | pest or weed control at 125 g/ha (wild oat (Avena fatua); 125 g ai/ha, scale 0 to 100 (0 no effect, 100 complete control), read-out: Oat, Wild plant response rating) | pest or weed control at 500 g/ha (wild oat (Avena fatua); 500 g ai/ha, scale 0 to 100, read-out: Plant response rating, Oat, Wild) | pest or weed control at 125 g/ha ([11]; 125 g ai/ha, scale 0 to 100 (0 no effect, 100 complete control), read-out: Blackgrass plant response rating)
100%: pest or weed control at 500 g/ha ([1]; post-emergence, Postemergence, scale 0 to 100, read-out: Plant response rating, Pigweed) | pest or weed control at 500 g/ha ([1]; pre-emergence, Preemergence, scale 0 to 100 (0 no effect, 100 complete control), read-out: Pigweed plant response rating) | pest or weed control at 500 g/ha ([6]; post-emergence, Postemergence, scale 0 to 100, read-out: Plant response rating, Lambsquarters) | pest or weed control at 500 g/ha ([6]; pre-emergence, Preemergence, scale 0 to 100 (0 no effect, 100 complete control), read-out: Lambsquarters plant response rating) | pest or weed control at 500 g/ha ([7]; post-emergence, Postemergence, scale 0 to 100, read-out: Plant response rating, Cocklebur) | pest or weed control at 500 g/ha ([9]; post-emergence, Postemergence, scale 0 to 100, read-out: Plant response rating, Morningglory) | pest or weed control at 500 g/ha ([9]; pre-emergence, Preemergence, scale 0 to 100 (0 no effect, 100 complete control), read-out: Morningglory plant response rating)
20%: pest or weed control at 125 g/ha ([4]; post-emergence, Postemergence, scale 0 to 100 (0 no effect, 100 complete control), read-out: Crabgrass plant response rating) | pest or weed control at 125 g/ha ([5]; post-emergence, Postemergence, scale 0 to 100 (0 no effect, 100 complete control), read-out: Surinam Grass plant response rating) | plant injury at 125 g/ha ([10]; post-emergence, Postemergence, scale 0 to 100 (0 no effect, 100 complete control), read-out: Wheat plant response rating) | plant injury at 125 g/ha [10, 15]
30%: pest or weed control at 125 g/ha ([4]; pre-emergence, Preemergence, scale 0 to 100 (0 no effect, 100 complete control), read-out: Plant response rating, Crabgrass) | pest or weed control at 125 g/ha ([7]; post-emergence, Postemergence, scale 0 to 100 (0 no effect, 100 complete control), read-out: Cocklebur plant response rating)
50%: pest or weed control at 125 g/ha ([2]; post-emergence, Postemergence, scale 0 to 100 (0 no effect, 100 complete control), read-out: Velvetleaf plant response rating) | pest or weed control at 500 g/ha ([4]; post-emergence, Postemergence, scale 0 to 100, read-out: Plant response rating, Crabgrass) | plant injury at 500 g/ha [10, 15] | plant injury at 500 g/ha (corn (Zea mays); pre-emergence, Preemergence, 500 g ai/ha, scale 0 to 100 (0 no effect, 100 complete control), read-out: Corn plant response rating)
0%: pest or weed control at 125 g/ha ([3]; pre-emergence, Preemergence, scale 0 to 100 (0 no effect, 100 complete control), read-out: Plant response rating, Foxtail, Giant) | plant injury at 125 g/ha (corn (Zea mays); post-emergence, Postemergence, 125 g ai/ha, scale 0 to 100 (0 no effect, 100 complete control), read-out: Corn plant response rating) | Corn plant response rating (crop injury, 0 = no effect, 100 = complete kill) at 125 g/ha (corn (Zea mays); pre-emergence, Preemergence, 125 g ai/ha, scale 0 to 100 (0 no effect, 100 complete control)) | pest or weed control at 1000 g/ha [12] | pest or weed control at 1000 g/ha [13] | pest or weed control at 1000 g/ha [14] | plant injury at 1000 g/ha (rice (Oryza sativa))
70%: pest or weed control at 125 g/ha ([1]; post-emergence, Postemergence, scale 0 to 100 (0 no effect, 100 complete control), read-out: Pigweed plant response rating) | pest or weed control at 125 g/ha ([2]; pre-emergence, Preemergence, scale 0 to 100 (0 no effect, 100 complete control), read-out: Plant response rating, Velvetleaf) | pest or weed control at 500 g/ha ([3]; pre-emergence, Preemergence, scale 0 to 100 (0 no effect, 100 complete control), read-out: Foxtail, Giant plant response rating) | pest or weed control at 125 g/ha ([9]; post-emergence, Postemergence, scale 0 to 100 (0 no effect, 100 complete control), read-out: Morningglory plant response rating) | pest or weed control at 125 g/ha ([9]; pre-emergence, Preemergence, scale 0 to 100 (0 no effect, 100 complete control), read-out: Plant response rating, Morningglory) | pest or weed control at 500 g/ha ([11]; 500 g ai/ha, scale 0 to 100, read-out: Plant response rating, Blackgrass)
90%: pest or weed control at 500 g/ha ([2]; post-emergence, Postemergence, scale 0 to 100, read-out: Plant response rating, Velvetleaf) | pest or weed control at 500 g/ha ([2]; pre-emergence, Preemergence, scale 0 to 100 (0 no effect, 100 complete control), read-out: Velvetleaf plant response rating) | pest or weed control at 125 g/ha ([6]; post-emergence, Postemergence, scale 0 to 100 (0 no effect, 100 complete control), read-out: Lambsquarters plant response rating) | pest or weed control at 125 g/ha ([6]; pre-emergence, Preemergence, scale 0 to 100 (0 no effect, 100 complete control), read-out: Plant response rating, Lambsquarters) | pest or weed control at 500 g/ha ([7]; pre-emergence, Preemergence, scale 0 to 100 (0 no effect, 100 complete control), read-out: Cocklebur plant response rating) | pest or weed control at 500 g/ha ([8]; post-emergence, Postemergence, scale 0 to 100, read-out: Plant response rating, Barnyardgrass)
40%: pest or weed control at 125 g/ha ([8]; post-emergence, Postemergence, scale 0 to 100 (0 no effect, 100 complete control), read-out: Barnyardgrass plant response rating)
80%: pest or weed control at 125 g/ha ([1]; pre-emergence, Preemergence, scale 0 to 100 (0 no effect, 100 complete control), read-out: Plant response rating, Pigweed) | pest or weed control at 500 g/ha ([4]; pre-emergence, Preemergence, scale 0 to 100 (0 no effect, 100 complete control), read-out: Crabgrass plant response rating) | pest or weed control at 500 g/ha ([5]; post-emergence, Postemergence, scale 0 to 100, read-out: Plant response rating, Surinam Grass) | pest or weed control at 500 g/ha ([8]; pre-emergence, Preemergence, scale 0 to 100 (0 no effect, 100 complete control), read-out: Barnyardgrass plant response rating)
10%: pest or weed control at 125 g/ha ([3]; post-emergence, Postemergence, scale 0 to 100 (0 no effect, 100 complete control), read-out: Foxtail, Giant plant response rating) | pest or weed control at 125 g/ha ([5]; pre-emergence, Preemergence, scale 0 to 100 (0 no effect, 100 complete control), read-out: Plant response rating, Surinam Grass) | pest or weed control at 125 g/ha ([8]; pre-emergence, Preemergence, scale 0 to 100 (0 no effect, 100 complete control), read-out: Plant response rating, Barnyardgrass)
